Test [1] deals with tubulin. As to the kind of experiment: Tubulin polymerization in vitro assay. Particulars: result not shown. Type of test: biochemical.
Test [2] deals with human bladder cancer UM-UC-3 cells. As to the kind of experiment: MTT cell growth and proliferation assay, UM-UC-3 cells. Type of test: cell-based. The settings on record: Homo sapiens, read-out: IC50, inhibition of cell proliferation. The protocol: (§1) FIG. 3. The effect of AITC on cell survival and proliferation. AITC was evaluated at the indicated concentrations in human bladder cancer UM-UC-3 cells, rat bladder cancer AY-27 cells, and normal human bladder epithelial cells (HUC). A. Cell growth inhibition, measured by MTT assay, 72-h AITC treatment. IC50 was calculated from nonlinear regression curve fit. B. Cell cycle arrest (□, subG1; ? , G1; ? , 5; ▪, G2/M), measured by flow cytometry, 24 h AITC treatment. C. Apoptosis induction, measured by an ELISA assay, 24 h AITC treatment. Mean±SE, n=3-6), *P<0.05.
(§2) FIG. 10. The effect of NAC-AITC on cell survival and proliferation. NAC-AITC was evaluated in both UM-UC-3 cells and AY-27 cells. (A) Chemical structures of AITC and NAC-AITC. (B) Cell growth and proliferation, measured by 3-([…])-2,5-diphenyltetrazolium bromide assay, 72 h treatment with AITC or NAC-AITC at indicated concentrations. IC50 was calculated from the non-linear regression curve fit. (C) Apoptosis, measured by an enzyme-linked immunosorbent assay, 24 h NAC-AITC treatment at 15 µM. (D) Cell cycle (open bars, G1; shaded bars, S; closed bars, G2/M), measured by flow cytometry, 24 h NAC-AITC treatment at 15 μM. *P<, 0.005, compared with control.
Assays for cell proliferation, cell cycle arrest and apoptosis. To determine the antiproliferative activity of NAC-AITC, AY-27 cells were grown in 96-well microtiter plates ([…] with 0.15 ml medium per well) for 24 h and then grown for 72 h in fresh medium (0.2 ml/well) containing a series of concentrations of NAC-AITC or solvent. Cell growth was measured at the end of treatment using the 3-([…])-2,5-diphenyltetrazolium bromide assay, from which the half maximal inhibitory concentration (IC50) of NAC-AITC was calculated. AITC was also evaluated for comparison.

Test [3] has as its system UM-UC-3 cells. As to the kind of experiment: Cell cycle arrest by flow cytometry, UM-UC-3 cells. It counts as cell-based, human. The settings on record: 24 h. The protocol:
as §1
FIG. 4. Effect of AITC on mitosis, tubulin expression and apoptosis in human bladder cancer UM-UC-3 cells. Cells were treated with vehicle or AITC for 24 h (each numerical value is mean±SD). A. Flow cytometry analysis for cell cycle arrest. B. Wright-Giemsa staining for counting mitotic figures. Arrows point to cells in mitosis or mitotic catastrophe. C. Immunofluorescent staining of microtubules (green color) and DNA staining with DAPI (blue color). D. Western blotting of tubulins (GAPDH as a loading control). E. Loss of mitochondrial transmembrane potential (Δψm) measured by flow cytometry. […] G. Apoptotic cells (TUNEL cells) measured by flow cytometry. […]
FIG. 10. […] NAC-AITC was evaluated in both UM-UC-3 cells and AY-27 cells. […] (B) Cell growth and proliferation, measured by 3-([…])-2,5-diphenyltetrazolium bromide assay, 72 h treatment with AITC or NAC-AITC at indicated concentrations. IC50 was calculated from the non-linear regression curve fit. (C) Apoptosis, measured by an enzyme-linked immunosorbent assay, 24 h NAC-AITC treatment at 15 µM. (D) Cell cycle (open bars, G1; shaded bars, S; closed bars, G2/M), measured by flow cytometry, 24 h NAC-AITC treatment at 15 μM. *P<, 0.005, compared with control.
The effect of NAC-AITC on cell cycle progression was measured by flow cytometry as described previously. […] Induction of apoptosis by NAC-AITC was measured using the Cell Death Detection ELISA^plus kit (Roche Diagnostics, Indianapolis, Ind.), following the manufacturer's instruction. […]
(In general: A flow cytometer gives signals particle by particle.)

Test [4] concerns normal human bladder epithelial cells (HUC). As to the kind of experiment: MTT cell growth assay, normal bladder epithelial cells. It counts as cell-based. The settings on record: 72-h treatment. The protocol: as §1
(In general: Tetrazolium assays rely on reduction of a dye to a coloured formazan, in cell work by metabolically active cells.)

Test [5] relates to AY-27 cells. As to the kind of experiment: Apoptosis induction ELISA (histone-associated DNA), AY-27 cells. It counts as cell-based, rat. Particulars: 24 h. Here is the method: as §1, §2
The effect of NAC-AITC on cell cycle progression was measured by flow cytometry as described previously. […]
In general terms: An ELISA detects its analyte on a solid surface through an enzyme-linked reagent.

Test [6] concerns cyclooxygenase-2 (Cox-2) in human bladder cancer HT1376 cells. As to the kind of experiment: Western blot analysis of Cox-2 in HT1376 cells. It counts as cell-based. The settings on record: 24 h, cells overexpressing Cox-2. Here is the method:
FIG. 5. The effects of AITC and SF on cyclooxygenase-2 (Cox-2) expression in human bladder cancer cells. Human bladder cancer HT1376 cells that over express Cox-2 were treated with AITC or SF at the indicated concentrations for 24 h and then harvested for Western blot analysis of Cox-2. GAPDH is used as a loading control.

Where two headings read alike, the source gives them in different places.

As to `C=CCN=C=S` [AITC, allyl isothiocyanate], the “rate of tubulin polymerization” value in test [1] is reported as “no effect”. The IC50 is 2.7 µM in test [2] (UMUC3, 72 h) and 69.4 µM in test [4]. Also, the “cells in G2/M phase” value in test [3] (AITC 7.5-15 microM, control 9.9-11.5%) was “up to 72%”. Besides, in test [3] (AITC), the “increase in subG1 population” value was “up to 6.5 fold”. The “increase in cytoplasmic levels of histone-associated DNA” value in test [5] (AITC) is reported as no more than 5.2 fold. Besides, the “effect on Cox-2 expression” value in test [6] is reported as “not detectable”.

Take `C=CCNC(=S)SC[C@H](NC(C)=O)C(=O)O` [NAC-AITC, N-acetyl-S—(N-allylthiocarbamoyl)cysteine]: in test [2] (UMUC3, Example 9, 72 h treatment), the IC50 worked out at 7.4 µM. Besides, the “cells in G2/M phase” value in test [3] (NAC-AITC 15 µM, control 11-12%) came to 55%. Also, the “increase in apoptotic activity” value in test [5] (15 μM) worked out at 10.6 fold.

(Values after patent US9486434B2, “Method for delivery and use of isothiocyanates for prophylaxis and/or therapy of bladder cancer” (Health Research Inc., priority 2010, dated 2016).)
